What all share (type): cell-based, HEK293
In experiment [1] the target is T1, Sodium-dependent noradrenaline transporter (Homo sapiens, UniProt P23975).
Experiment [2] concerns the target T2, Sodium-dependent serotonin transporter (Homo sapiens, UniProt P31645).
Experiment [3] deals with T3, Sodium-dependent dopamine transporter (Homo sapiens, UniProt Q01959).
For experiment [4], the target named is T3, Sodium-dependent dopamine transporter. The experiment can be described thus: Inhibition of [3H]dopamine uptake in HEK cells expressing human DAT.
Experiment [5] has as its target T1, Sodium-dependent noradrenaline transporter. In words: Inhibition of [3H]norepinephrine uptake in HEK cells expressing human NET.
Experiment [6] addresses T2, Sodium-dependent serotonin transporter. In words: Inhibition of [3H]5-HT uptake in HEK cells expressing human SERT.

We go through 7 compounds from ChEMBL document CHEMBL1136450, “Synthesis and biological activity of 2-carbomethoxy-3-catechol-8-azabicyclo[3.2.1]octanes” (Bioorg Med Chem Lett, 2003).

In general, Ki refers to a measure of affinity in units of concentration, obtained from inhibition or displacement. Low readings indicate tighter binding, high ones weaker binding. As usually defined, the IC50 is the concentration needed to halve the response being measured.

T3 sequence (Q01959 whole entry): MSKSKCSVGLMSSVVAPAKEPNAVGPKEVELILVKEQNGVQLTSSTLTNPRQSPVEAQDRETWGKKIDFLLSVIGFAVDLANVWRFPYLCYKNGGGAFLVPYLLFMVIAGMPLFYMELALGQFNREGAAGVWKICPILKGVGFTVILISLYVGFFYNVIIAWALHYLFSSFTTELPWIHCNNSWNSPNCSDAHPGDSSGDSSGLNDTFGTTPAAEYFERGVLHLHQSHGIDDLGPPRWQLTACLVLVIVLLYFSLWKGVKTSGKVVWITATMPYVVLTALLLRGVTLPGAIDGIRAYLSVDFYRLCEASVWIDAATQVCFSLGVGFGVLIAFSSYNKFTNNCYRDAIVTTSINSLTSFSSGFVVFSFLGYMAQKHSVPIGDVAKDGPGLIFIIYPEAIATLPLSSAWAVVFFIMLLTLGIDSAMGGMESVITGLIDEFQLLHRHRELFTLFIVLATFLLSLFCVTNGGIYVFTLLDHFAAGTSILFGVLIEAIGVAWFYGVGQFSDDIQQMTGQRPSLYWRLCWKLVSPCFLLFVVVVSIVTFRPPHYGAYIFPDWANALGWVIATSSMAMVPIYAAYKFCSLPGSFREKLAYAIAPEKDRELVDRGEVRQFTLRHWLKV
T1 sequence (P23975 whole entry): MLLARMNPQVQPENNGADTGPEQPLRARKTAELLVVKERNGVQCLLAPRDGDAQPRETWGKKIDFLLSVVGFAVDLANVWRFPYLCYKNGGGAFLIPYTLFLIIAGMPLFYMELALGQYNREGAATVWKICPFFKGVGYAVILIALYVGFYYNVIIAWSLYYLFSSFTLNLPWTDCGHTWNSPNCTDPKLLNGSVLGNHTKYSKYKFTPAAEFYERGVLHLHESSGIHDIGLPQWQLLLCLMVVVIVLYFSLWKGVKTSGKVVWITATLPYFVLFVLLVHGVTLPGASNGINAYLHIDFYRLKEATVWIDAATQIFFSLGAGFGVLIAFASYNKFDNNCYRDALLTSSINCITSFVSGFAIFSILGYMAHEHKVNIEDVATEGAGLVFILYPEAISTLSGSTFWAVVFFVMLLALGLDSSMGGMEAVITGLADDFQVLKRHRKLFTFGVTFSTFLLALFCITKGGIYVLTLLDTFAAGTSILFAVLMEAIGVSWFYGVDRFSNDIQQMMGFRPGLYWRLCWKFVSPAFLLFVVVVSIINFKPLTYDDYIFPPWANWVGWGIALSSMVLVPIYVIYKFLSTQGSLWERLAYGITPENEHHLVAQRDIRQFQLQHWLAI
T2 sequence (P31645 whole entry): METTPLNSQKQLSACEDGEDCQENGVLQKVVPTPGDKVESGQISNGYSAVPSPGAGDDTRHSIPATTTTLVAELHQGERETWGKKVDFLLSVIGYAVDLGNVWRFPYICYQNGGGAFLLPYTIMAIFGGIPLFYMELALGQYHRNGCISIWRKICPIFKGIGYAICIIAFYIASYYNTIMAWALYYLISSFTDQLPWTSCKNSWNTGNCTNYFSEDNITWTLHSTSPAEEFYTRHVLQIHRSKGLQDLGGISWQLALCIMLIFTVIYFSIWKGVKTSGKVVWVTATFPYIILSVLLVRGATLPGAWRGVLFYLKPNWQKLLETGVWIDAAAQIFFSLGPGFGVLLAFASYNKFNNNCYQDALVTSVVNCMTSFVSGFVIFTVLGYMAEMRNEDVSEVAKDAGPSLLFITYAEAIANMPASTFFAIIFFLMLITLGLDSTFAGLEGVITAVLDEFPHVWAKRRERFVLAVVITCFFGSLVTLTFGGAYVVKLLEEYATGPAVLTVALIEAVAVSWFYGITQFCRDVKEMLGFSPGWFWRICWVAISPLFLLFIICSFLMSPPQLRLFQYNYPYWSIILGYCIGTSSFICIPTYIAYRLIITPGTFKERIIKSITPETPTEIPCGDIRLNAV

For `COC(=O)C1=C(c2ccc(C(C)=O)c(C(C)=O)c2)CC2CCC1N2C` (stereo not given), the inhibitory constant (Ki) in experiment [1], in experiment [2] and in experiment [3] was over 10000 nM each time.

Take `COC(=O)C1C(c2ccc(O)c(O)c2)CC2CCC1N2C` (stereo in doubt; 8): the 50% inhibitory concentration (IC50) stood at 406 nM in experiment [4] and 173 nM in experiment [5]. Further, the inhibitory constant (Ki) in experiment [1] came to 3060 nM; in experiment [2], 10000 nM; in experiment [3] it was 970 nM.

On to `COC(=O)C1C(c2ccc(OC)c(OC)c2)CC2CCC1N2C` (stereo not given), for which the figures for the IC50 in experiment [4], in experiment [6] and in experiment [5] were 1570 nM, 23 nM and 1450 nM, respectively. The Ki in experiment [1] was found to be 4500 nM; in experiment [2], 46 nM; in experiment [3] it was 1540 nM.

Consider `COC(=O)C1C(c2ccc(O)c(O)c2)CC2CCC1N2C` (stereo in doubt; 7), for which the IC50 in experiment [4] came to 507 nM; in experiment [6], 308 nM; in experiment [5], 122 nM. The Ki in experiment [1] is 2960 nM; in experiment [2], 271 nM; in experiment [3], 1370 nM.

Consider `COC(=O)C1C(c2ccc(C(C)=O)c(C(C)=O)c2)CC2CCC1N2C` (stereo in doubt; 11), for which the Ki in experiment [1] is over 10000 nM; in experiment [2] it was 704 nM; in experiment [3], over 10000 nM.

Take `COC(=O)C1C(c2ccc(C(C)=O)c(C(C)=O)c2)CC2CCC1N2C` (stereo in doubt; 10): the Ki was over 10000 nM in experiment [1] (hek293), 168 nM in experiment [2] and over 10000 nM in experiment [3] (hek293). Moreover, half-maximal inhibition in experiment [6] (IC50) was put at 330 nM.

Take `COC(=O)C1=C(c2ccc(O)c(O)c2)CC2CCC1N2C` (stereo not given): the Ki in experiment [1], in experiment [2] and in experiment [3] was over 10000 nM throughout.
